We go through 8 compounds from patent publication US20250312499A1, “KISSPEPTIN RECEPTOR (KISS1R) TARGETED THERAPEUTICS AND USES THEREOF” (priority 2024, published 2025).

In this experiment the target is human kisspeptin receptor (Homo sapiens (Human), UniProt Q969F8). Description: Human KISS1R binding assay (membrane competition binding). The following applies: 90 min at room temperature; competition with 0.2 nM [125I]-metastin (45-54); Flp-In T-Rex 293 kisspeptin membranes; metal complexes nonradioactive Ga, In, Lu; read-out: hKiSSR Binding Ki (90 min). An outline of the steps: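 Radioligand competition: 0.2 nM [125I]-metastin (45-54) displaced by test ligand (usually 0–10,000 nM) over 90 min at room temperature, pH 7.4 buffer with 0.1% BSA. Receptor source is crude membrane (5–10 μg) from tetracycline-induced Flp-In T-Rex 293 cells. Bound label filtered and counted; Ki from non-linear regression.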
Sequence of human kisspeptin receptor (Q969F8 whole entry): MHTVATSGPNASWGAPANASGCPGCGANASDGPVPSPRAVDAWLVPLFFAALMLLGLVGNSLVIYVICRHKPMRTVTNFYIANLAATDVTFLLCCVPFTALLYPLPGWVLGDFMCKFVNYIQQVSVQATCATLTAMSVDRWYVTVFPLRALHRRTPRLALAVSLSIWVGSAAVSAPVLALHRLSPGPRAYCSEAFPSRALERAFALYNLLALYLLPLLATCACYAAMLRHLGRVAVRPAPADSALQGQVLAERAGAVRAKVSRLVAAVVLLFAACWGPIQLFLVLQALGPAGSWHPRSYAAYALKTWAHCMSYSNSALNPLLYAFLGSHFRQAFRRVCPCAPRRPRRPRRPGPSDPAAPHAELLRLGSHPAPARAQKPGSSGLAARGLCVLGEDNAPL

The structures appear in SMILES notation. Numbered stars: 1 amine (or outer) side, 2 acyl side, 3 side chain; on linkers, the order of the positions; unused ones are H or OH. Square brackets hold non-standard residues; d marks the D form. Peptide text beside a SMILES is read from it. * marks the point of attachment. DOTA = O=C(O)CN1CCN(CC(=O)O)CCN(CC(=O)*)CCN(CC(=O)O)CC1; Gly(N-(3-F-4-Me-benzyl)) = Cc1ccc(CNCC(=O)*)cc1F; d(γGlu) = O=C(O)[C@@H](CCC(=O)[*:2])N[*:1]; Phe(3-F) = N[C@@H](Cc1cccc(F)c1)C(=O)O; X1 = O=C(CN1CCC(N[*:1])CC1)[*:2]; dCya = N[C@H](CS(=O)(=O)O)C(=O)O; 4Amb = NCc1ccc(C(=O)O)cc1; Api = NC1(C(=O)O)CCNCC1; Ahx = NCCCCCC(=O)O; azaGly = NNC(=O)O

On to `Cc1ccc(CNCC(=O)N2CCC(NC(=O)[C@H](CC(C)C)NC(=O)NNC(=O)[C@H](Cc3ccccc3)NC(=O)c3ccc(CNC(=O)[C@@H](CS(=O)(=O)O)NC(=O)[C@@H](CS(=O)(=O)O)NC(=O)CN4CCN(CC(=O)O)CCN(CC(=O)O)CCN(CC(=O)O)CC4)cc3)(C(=O)N[C@@H](Cc3c[nH]c4ccccc34)C(N)=O)CC2)cc1F` [Compound 146] ({DOTA}-[dCya][dCya][4Amb]F[azaGly]L[Api](Gly(N-(3-F-4-Me-benzyl)))W-NH2), for which the inhibitory constant (Ki) was less than 10 nM.

As to `Cc1ccc(CNCC(=O)N2CCC(NC(=O)[C@H](CC(C)C)N[C@H](CNC(=O)[C@H](Cc3ccccc3)NC(=O)CCCCCNC(=O)CN3CCN(CC(=O)O)CCN(CC(=O)O)CCN(CC(=O)O)CC3)C(F)(F)F)(C(=O)N[C@@H](Cc3c[nH]c4ccccc34)C(N)=O)CC2)cc1F` [Compound 147], the Ki is greater than 100 nM. With `Cc1ccc(CNCC(=O)N2CCC(NC(=O)[C@H](CC(C)C)N[C@@H](CNC(=O)[C@H](Cc3ccccc3)NC(=O)CCCCCNC(=O)CN3CCN(CC(=O)O)CCN(CC(=O)O)CCN(CC(=O)O)CC3)C(F)(F)F)(C(=O)N[C@@H](Cc3c[nH]c4ccccc34)C(N)=O)CC2)cc1F` [Compound 148], the inhibition constant Ki lay within 10 to 100 nM. With `Cc1ccc(CNCC(=O)N2CCC(NC(=O)[C@H](CC(C)C)NC(=O)NNC(=O)[C@H](Cc3ccccc3)NC(=O)[C@@H](NC(=O)[C@H](CC(N)=O)NC(=O)[C@@H](Cc3c[nH]c4ccccc34)NC(=O)[C@@H](Cc3ccc(O)cc3)NC(=O)CCCCCNC(=O)[C@H](Cc3ccc(O)cc3)NC(=O)CNC(=O)c3ccc(CNC(=O)CN4CCN(CC(=O)O)CCN(CC(=O)O)CCN(CC(=O)O)CC4)cc3)[C@@H](C)O)(C(=O)N[C@@H](Cc3c[nH]c4ccccc34)C(N)=O)CC2)cc1F` [Compound 149] ({DOTA-4Amb}-GY[Ahx][dY][dW]NTF[azaGly]L[Api](Gly(N-(3-F-4-Me-benzyl)))W-NH2), the inhibitory constant (Ki) was less than 10 nM. The value for `Cc1ccc(CNCC(=O)N2CCC(NC(=O)[C@H](CC(C)C)NC(=O)NNC(=O)[C@H](Cc3ccccc3)NC(=O)[C@@H](NC(=O)[C@H](CC(N)=O)NC(=O)[C@@H](Cc3c[nH]c4ccccc34)NC(=O)[C@H](Cc3ccc(O)cc3)NC(=O)CNC(=O)CN3CCN(CC(=O)O)CCN(CC(=O)O)CCN(CC(=O)O)CC3)[C@@H](C)O)(C(=O)N[C@@H](Cc3c[nH]c4ccccc34)C(N)=O)CC2)cc1F` [Compound 151] ({DOTA}-GY[dW]NTF[azaGly]L[Api](Gly(N-(3-F-4-Me-benzyl)))W-NH2) was less than 10 nM; that for `Cc1ccc(CNCC(=O)N2CCC(NC(=O)[C@H](CC(C)C)NC(=O)NNC(=O)[C@H](Cc3ccccc3)NC(=O)CC[C@@H](NC(=O)CN3CCN(CC(=O)O)CCN(CC(=O)O)CCN(CC(=O)O)CC3)C(=O)O)(C(=O)N[C@@H](Cc3c[nH]c4ccccc34)C(N)=O)CC2)cc1F` [Compound 156] ({DOTA-d(γGlu)}-F[azaGly]L[Api](Gly(N-(3-F-4-Me-benzyl)))W-NH2) was less than 10 nM; that for `Cc1ccc(CNCC(=O)N2CCC(NC(=O)[C@H](CC(C)C)NC(=O)NNC(=O)[C@H](Cc3ccccc3)NC(=O)[C@@H](NC(=O)[C@H](CC(N)=O)NC(=O)CN3CCC(NC(=O)CN4CCN(CC(=O)O)CCN(CC(=O)O)CCN(CC(=O)O)CC4)CC3)[C@@H](C)O)(C(=O)N[C@@H](Cc3c[nH]c4ccccc34)C(N)=O)CC2)cc1F` [Compound 158] ({DOTA}-[X1]NTF[azaGly]L[Api](Gly(N-(3-F-4-Me-benzyl)))W-NH2) was less than 10 nM. The value for `Cc1ccc(CNCC(=O)N2CCC(NC(=O)[C@H](CC(C)C)NC(=O)NNC(=O)[C@H](Cc3cccc(F)c3)NC(=O)[C@@H](NC(=O)[C@H](CC(N)=O)NC(=O)[C@H](CCC(=O)O)NC(=O)CN3CCC(NC(=O)CN4CCN(CC(=O)O)CCN(CC(=O)O)CCN(CC(=O)O)CC4)CC3)[C@@H](C)O)(C(=O)N[C@@H](Cc3c[nH]c4ccccc34)C(N)=O)CC2)cc1F` [Compound 159] ({DOTA}-[X1]ENT[Phe(3-F)][azaGly]L[Api](Gly(N-(3-F-4-Me-benzyl)))W-NH2) was less than 10 nM.

For orientation: Ki means a dissociation constant, usually derived from enzyme kinetics or from competition with a known ligand.
